# In patent US20230372375A1, “SGLT-2 INHIBITOR SARCOSINE CO-CRYSTAL, PREPARATION METHOD THEREFOR AND USE THEREOF” (Beijing Creatron Institute of Pharmaceutical Research Co. …, priority 2020, published 2023):
# “And” between values parts separate entries of the source, which are not always exact repeats. Equal entries are not always repeated. Where two headings read alike, the source gives them in different places.
# Legend:
# [1] = Particle size by laser particle size analyzer; conditions: water as a dispersant
# [2] = Fluidity (angle of repose, bulk density, tap density); conditions: BT-1000 powder comprehensive property tester
# [3] = Comparison of sieving performance; conditions: 30 g, 80 mesh sieve, 1400 rpm, 20 minutes
# [4] = Influencing factors test (physical and chemical stability) of dapagliflozin crystal forms, Test Example 1
# Method: The materials of the two crystal forms were directly exposed for 10 days to conditions of high temperature of 60° C.±2° C., light irradiation of 4500LX±500LX, and high humidity RH75%±5%, to investigate the physical stability and chemical stability of the two crystal forms.
# [5] = Influencing factors test (physical and chemical stability) of canagliflozin crystal forms, Test Example 2; type: physicochemical; set-up: Impurity RRT0.73 content / Impurity RRT0.93 content / Impurity RRT1.12 content / Impurity RRT1.17 content / Impurity RRT2.25 content / Impurity RRT2.28 content / Impurity RRT0.57 content / Impurity RRT0.67 content: unit not given here
# Method: The canagliflozin-sarcosine cocrystal and canagliflozin hemihydrate (original crystal form) were tested for influencing factors.
# [6] = 60° C., directly exposed 10 days
# [7] = Light irradiation of 5000 Lx, 10 days
# [8] = Directly exposed at 60° C. for 10 days
# [9] = Directly exposed at 5000 LX for 10 days
# [10] = Directly exposed at RH75% for 10 days
# [11] = light irradiation of 5000LX for 10 days
smiles,measurement,setting,value
CCOc1ccc(Cc2cc([C@@H]3O[C@H](CO)[C@@H](O)[C@H](O)[C@H]3O)ccc2Cl)cc1.C[C@H](O)CO.O,D10 (μm),[1],2.492 μm
same,D50 (μm),[1],61.55 μm
same,D90 (μm),[1],256.2 μm
same,Angle of repose (°),[2],48 °
same,Bulk density,[2],0.35 g/mL
same,Tap density,[2],0.53 g/mL
same,Average yield (%) after sieving,[3],86.0%
same,Situations after sieving,[3],Almost no large particles but a
same,"Yield after sieving (%, n = 3), single runs",[3]; listed as Dapagliflozin (S)-propylene glycol hydrate,"85.2, % and 87.7, % and 84.9%"
same,"Impurity 6 (RT 21.65 min, RRT 1.06) content",[4]; 0 day,0.01
same,"Impurity 7 (RT 22.01 min, RRT 1.07) content",[4]; 0 day,0.01
same,"Impurity 10 (RT 33.01 min, RRT 1.61) content",[4]; 0 day,0.02
same,"Impurity 11 (RT 33.72 min, RRT 1.65) content",[4]; 0 day,0.01
same,"Impurity 12 (RT 34.69 min, RRT 1.69) content",[4]; 0 day,0.01
same,"Impurity 13 (RT 39.10 min, RRT 1.91) content",[4]; 0 day,0.02
same,Number of impurities,[4]; 0 day,6
same,Property (appearance),[4]; 0 day,White
same,Total content of impurities (%),[4]; 0 day,0.07%
same,"Impurity 1 (RT 7.45 min, RRT 0.36) content",[4]; [6],0.02
same,"Impurity 2 (RT 10.46 min, RRT 0.51) content",[4]; [6],0.14
same,"Impurity 3 (RT 14.06 min, RRT 0.69) content",[4]; [6],0.01
same,"Impurity 4 (RT 14.62 min, RRT 0.71) content",[4]; [6],0.21
same,"Impurity 5 (RT 16.02 min, RRT 0.78) content",[4]; [6],0.01
same,"Impurity 6 (RT 21.65 min, RRT 1.06) content",[4]; [6],0.01
same,"Impurity 7 (RT 22.01 min, RRT 1.07) content",[4]; [6],0.01
same,"Impurity 8 (RT 27.17 min, RRT 1.33) content",[4]; [6],0.02
same,"Impurity 9 (RT 30.53 min, RRT 1.49) content",[4]; [6],0.02
same,"Impurity 10 (RT 33.01 min, RRT 1.61) content",[4]; [6],0.02
same,"Impurity 11 (RT 33.72 min, RRT 1.65) content",[4]; [6],0.01
same,"Impurity 12 (RT 34.69 min, RRT 1.69) content",[4]; [6],0.01
same,"Impurity 13 (RT 39.10 min, RRT 1.91) content",[4]; [6],0.02
same,Number of impurities,[4]; [6],13
same,Property (appearance),[4]; [6],Melted
same,Total content of impurities (%),[4]; [6],0.50%
same,"Impurity 6 (RT 21.65 min, RRT 1.06) content",[4]; [7],0.01
same,"Impurity 7 (RT 22.01 min, RRT 1.07) content",[4]; [7],0.01
same,"Impurity 10 (RT 33.01 min, RRT 1.61) content",[4]; [7],0.02
same,"Impurity 11 (RT 33.72 min, RRT 1.65) content",[4]; [7],0.01
same,"Impurity 12 (RT 34.69 min, RRT 1.69) content",[4]; [7],0.01
same,"Impurity 13 (RT 39.10 min, RRT 1.91) content",[4]; [7],0.02
same,Number of impurities,[4]; [7],6
same,Total content of impurities (%),[4]; [7],0.08%
same,"Impurity 6 (RT 21.65 min, RRT 1.06) content","[4]; RH75%, 10 days",0.01
same,"Impurity 7 (RT 22.01 min, RRT 1.07) content","[4]; RH75%, 10 days",0.01
same,"Impurity 10 (RT 33.01 min, RRT 1.61) content","[4]; RH75%, 10 days",0.02
same,"Impurity 11 (RT 33.72 min, RRT 1.65) content","[4]; RH75%, 10 days",0.01
same,"Impurity 12 (RT 34.69 min, RRT 1.69) content","[4]; RH75%, 10 days",0.01
same,"Impurity 13 (RT 39.10 min, RRT 1.91) content","[4]; RH75%, 10 days",0.02
same,Number of impurities,"[4]; RH75%, 10 days",6
same,Total content of impurities (%),"[4]; RH75%, 10 days",0.08%
CNCC(=O)O.Cc1ccc([C@@H]2O[C@H](CO)[C@@H](O)[C@H](O)[C@H]2O)cc1Cc1ccc(-c2ccc(F)cc2)s1 [canagliflozin-sarcosine cocrystal],Impurity RRT0.57 content,[5]; 0 day,0.01
same,Impurity RRT0.93 content,[5]; 0 day,0.01
same,Impurity RRT2.25 content,[5]; 0 day,0.01
same,Number of impurities,[5]; 0 day,3
same,Property (appearance),[5]; 0 day,White
same,Total content of impurities,[5]; 0 day,0.03%
same,Impurity RRT0.57 content,[5]; [8],0.01
same,Impurity RRT0.93 content,[5]; [8],0.01
same,Impurity RRT2.25 content,[5]; [8],0.01
same,Number of impurities,[5]; [8],3
same,Property (appearance),[5]; [8],White
same,Total content of impurities,[5]; [8],0.03%
same,Impurity RRT0.57 content,[5]; [9],0.05
same,Impurity RRT0.73 content,[5]; [9],0.01
same,Impurity RRT0.93 content,[5]; [9],0.01
same,Impurity RRT1.12 content,[5]; [9],0.01
same,Impurity RRT2.25 content,[5]; [9],0.01
same,Number of impurities,[5]; [9],5
same,Property (appearance),[5]; [9],White
same,Total content of impurities,[5]; [9],0.09%
same,Impurity RRT0.57 content,[5]; [10],0.01
same,Impurity RRT0.93 content,[5]; [10],0.01
same,Impurity RRT2.25 content,[5]; [10],0.01
same,Number of impurities,[5]; [10],3
same,Property (appearance),[5]; [10],White
same,Total content of impurities,[5]; [10],0.03%
same,Crystal form stability (XRPD),[5]; each influencing factor for 10 days vs 0 day,did not change
same,"Number of impurities detected and total content of impurities detected, change",[5]; high temperature 60° C. and high humidity of RH75% for 10 days vs 0 day,did not show an increasing trend
same,Weight change,[5]; high temperature of 60° C. and high humidity of RH75%,basically remained unchanged
same,Maximum detected amount of new impurities,[5]; [11],about 0.05%
same,New impurities detected (number),[5]; [11],2
same,Solubility,"Acetate buffer of pH 4.0, 25° C., 12 h",32.65 mg/mL
same,Solubility,"Acetate buffer of pH 4.0, 25° C., 24 h",32.66 mg/mL
same,Solubility,"Artificial gastric juice, 25° C., 12 h",31.16 mg/mL
same,Solubility,"Artificial gastric juice, 25° C., 24 h",32.08 mg/mL
same,Solubility,"Artificial intestinal juice, 25° C., 12 h",30.35 mg/mL
same,Solubility,"Artificial intestinal juice, 25° C., 24 h",30.89 mg/mL
same,Solubility,"Citrate buffer of pH 3.0, 25° C., 12 h",33.87 mg/mL
same,Solubility,"Citrate buffer of pH 3.0, 25° C., 24 h",34.23 mg/mL
same,Solubility,"Hydrochloric acid of pH 1.0, 25° C., 12 h",34.92 mg/mL
same,Solubility,"Hydrochloric acid of pH 1.0, 25° C., 24 h",35.12 mg/mL
same,Solubility,"Phosphate buffer of pH 6.8, 25° C., 12 h",31.28 mg/mL
same,Solubility,"Phosphate buffer of pH 6.8, 25° C., 24 h",33.34 mg/mL
same,Solubility,"Water, 25° C., 12 h",35.12 mg/mL
same,Solubility,"Water, 25° C., 24 h",34.56 mg/mL
same,Solubility in different pH media,"summary over media, 25° C.",about 30 μg/ml
same,Solubility in different pH media (words),"summary over media, 25° C.",almost insoluble
